Data on 26 compounds can be found in patent publication US20240199605A1, “SMALL MOLECULAR INHIBITORS OF NF-kB INDUCING KINASE” (Janssen Pharmaceutica NV, priority 2019, published 2024).

SMILES strings stand for the structures. Like-named read-outs stand apart in the source and are kept apart here. Some results are limits rather than exact numbers.

Experiment [1] relates to p-IKKα levels in L363 (NIK translocated multiple myeloma) cells. The experiment in a line: Effect of compounds on p-IKKα levels in L363 cells (AlphaLISA SureFire Ultra). It counts as cell-based, human. As to conditions: BAFF stimulated, MG132, 6 h, average of values, read-out: Assay 2 IC50. The essentials: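 Inhibition of p-IKKα (Ser176/180) read by AlphaLISA after 6 h, 37 °C compound exposure (11-point 1:3 series, 0.3% DMSO) of L363 cells pre-incubated overnight ± 250 ng/ml BAFF and plated ± BAFF ± 10 μM MG132. Normalised to BAFF/MG132/DMSO and unstimulated controls; IC50 by sigmoidal fitting, duplicates.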

In experiment [2] the target is recombinant human NF-kappaB-inducing kinase (NIK/MAP3K14) (Homo sapiens (Human), UniProt Q99558). The experiment in a line: Inhibition of auto-phosphorylation of recombinant human NIK/MAP3K14 (AlphaScreen). Type of experiment: biochemical. The note with it: NIK auto-phosphorylation, 5 μM ATP, 1 nM NIK, 2 h at 25° C.; average of values. The method in brief:
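GST-tagged NIK (1 nM) auto-phosphorylated with 5 μM ATP for 2 h at 25° C. in 50 mM Tris pH 7.5, 5 mM MgCl2, 1 mM EGTA, 1 mM DTT, 0.1 mM Na3VO4, 0.01% Tween 20 (0.7% DMSO). Detected by AlphaScreen via anti-phospho-IKK Ser176/180 antibody; IC50 from sigmoidal fit of % inhibition versus log concentration.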

Sequence of recombinant human NF-kappaB-inducing kinase (NIK/MAP3K14) (Q99558 whole entry): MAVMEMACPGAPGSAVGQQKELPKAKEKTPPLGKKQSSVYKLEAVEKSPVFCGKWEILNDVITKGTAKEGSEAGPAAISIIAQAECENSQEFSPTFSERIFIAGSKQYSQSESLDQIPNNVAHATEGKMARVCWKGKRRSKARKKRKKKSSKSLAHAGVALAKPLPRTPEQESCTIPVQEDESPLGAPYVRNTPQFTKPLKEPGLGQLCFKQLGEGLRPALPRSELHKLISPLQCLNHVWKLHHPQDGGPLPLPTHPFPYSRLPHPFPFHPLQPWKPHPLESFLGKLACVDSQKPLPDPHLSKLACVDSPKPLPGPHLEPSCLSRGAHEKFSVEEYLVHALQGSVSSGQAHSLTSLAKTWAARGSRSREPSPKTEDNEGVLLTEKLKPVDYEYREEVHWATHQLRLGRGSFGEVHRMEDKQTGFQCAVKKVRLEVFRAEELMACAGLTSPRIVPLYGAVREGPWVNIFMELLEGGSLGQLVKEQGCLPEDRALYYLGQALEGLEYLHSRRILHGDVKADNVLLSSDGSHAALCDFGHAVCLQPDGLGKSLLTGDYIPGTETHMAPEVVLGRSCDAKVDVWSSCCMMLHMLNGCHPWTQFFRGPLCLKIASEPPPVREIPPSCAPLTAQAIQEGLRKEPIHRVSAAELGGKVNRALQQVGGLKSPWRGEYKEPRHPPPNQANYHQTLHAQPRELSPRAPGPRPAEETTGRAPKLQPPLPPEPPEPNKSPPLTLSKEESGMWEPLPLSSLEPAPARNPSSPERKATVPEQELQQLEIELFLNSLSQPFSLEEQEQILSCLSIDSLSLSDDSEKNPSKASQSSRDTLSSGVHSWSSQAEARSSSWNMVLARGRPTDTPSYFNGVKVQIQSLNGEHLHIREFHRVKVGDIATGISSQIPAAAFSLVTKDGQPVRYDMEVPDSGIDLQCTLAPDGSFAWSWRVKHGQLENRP

`CN1CC[C@@](O)(C#Cc2cccc(-c3ccc4cnnc(N)c4c3)c2)C1=O` [Example 96, (R)-3-[2-[3-(4-Aminophthalazin-6-yl)phenyl]ethynyl]-3-hydroxy-1-methyl-pyrrolidin-2-one]: the concentration for half-maximal inhibition (IC50) was over 5000 nM in experiment [1] (Homo sapiens, L-363, 6 h) and 29 nM in experiment [2].

On to `CN1CC[C@@](O)(C#Cc2cccc(-c3cc4c(N)ncnc4cn3)c2)C1=O` [Example 111, (R)-3-[2-[3-(4-Aminopyrido[3,4-d]pyrimidin-6-yl)phenyl]ethynyl]-3-hydroxy-1-methyl-pyrrolidin-2-one], for which the IC50 was determined as 160 nM in experiment [1] (Homo sapiens, L-363, 6 h) and 1.2 nM in experiment [2].

With `Cc1nc(N)c2nc(-c3cccc(C#C[C@]4(O)CCN(C)C4=O)c3)ccc2n1` [Example 6, (R)-3-((3-(4-Amino-2-methylpyrido[3,2-d]pyrimidin-6-yl)phenyl)ethynyl)-3-hydroxy-1-methylpyrrolidin-2-one], the IC50 in experiment [1] (Homo sapiens, L-363, 6 h) is 12 nM; in experiment [2], 0.6 nM.

With `[2H]C([2H])([2H])N1CCC(O)(C#Cc2cccc(-c3ncc4ccnc(N)c4n3)c2)C1=O` (stereo in doubt) [Example 67, (S)-3-[2-[3-(8-Aminopyrido[3,4-d]pyrimidin-2-yl)phenyl]ethynyl]-3-hydroxy-1-(trideuteriomethyl)pyrrolidin-2-one], the half-inhibitory concentration (IC50) in experiment [1] (Homo sapiens, L-363, 6 h) stood at 350 nM; in experiment [2], 11 nM.

With `Cc1cnc(N)c2nc(-c3cccc(C#C[C@]4(O)CCn5ccnc54)c3)ncc12` [Example 86, (R)-7-[2-[3-(8-Amino-5-methyl-pyrido[3,4-d]pyrimidin-2-yl)phenyl]ethynyl]-5,6-dihydropyrrolo[1,2-a]imidazol-7-ol], the IC50 is 7.7 nM in experiment [1] (Homo sapiens, L-363, 6 h) and at most 0.5 nM in experiment [2].

For the compound `Cc1nc(N)c2nc(-c3cccc(C#C[C@]4(O)C(=O)N(C)C[C@H]4C)c3)ccc2n1` (stereo in doubt) [Example 294, (3S,4R*)-3-((3-(4-Amino-2-methylpyrido[3,2-d]pyrimidin-6-yl)phenyl)ethynyl)-3-hydroxy-1,4-dimethylpyrrolidin-2-one], the IC50 in experiment [1] (Homo sapiens, L-363, 6 h) was 2460 nM; in experiment [2], 390 nM.

For the compound `Cc1cc(-c2cccc(C#C[C@]3(O)CCN(C)C3=O)c2)nc2c(N)ncnc12` [Example 28, (R)-3-((3-(4-Amino-8-methylpyrido[3,2-d]pyrimidin-6-yl)phenyl)ethynyl)-3-hydroxy-1-methylpyrrolidin-2-one], the concentration for half-maximal inhibition (IC50) in experiment [1] (Homo sapiens, L-363, 6 h) is 0.7 nM; in experiment [2] it was at most 0.5 nM.

For the compound `CN1CC[C@@](O)(C#Cc2cccc(-c3ncc4cc[nH]c(=O)c4n3)c2)C1=O` [Example 30, (R)-2-[3-[2-(3-Hydroxy-1-methyl-2-oxo-pyrrolidin-3-yl)ethynyl]phenyl]-7H-pyrido[3,4-d]pyrimidin-8-one], the IC50 in experiment [1] (Homo sapiens, L-363, 6 h) came out at 1190 nM; in experiment [2] it was 60 nM.

Take `CN1CC[C@@](O)(C#Cc2cccc(-c3ncc4c(C(F)(F)F)cnc(N)c4n3)c2)C1=O` [Example 99, (R)-3-[2-[3-[8-Amino-5-(trifluoromethyl)pyrido[3,4-d]pyrimidin-2-yl]phenyl]ethynyl]-3-hydroxy-1-methyl-pyrrolidin-2-one]: the half-maximal inhibitory concentration (IC50) was 12 nM in experiment [1] (Homo sapiens, L-363, 6 h) and at most 0.5 nM in experiment [2].

Consider `Cc1nc(N)c2nc(-c3cccc(C#C[C@]4(O)CCN(C)C4=O)c3)cc(C)c2n1` [Example 285, (R)-3-((3-(4-Amino-2,8-dimethylpyrido[3,2-d]pyrimidin-6-yl)phenyl)ethynyl)-3-hydroxy-1-methylpyrrolidin-2-one], for which the IC50 in experiment [1] (Homo sapiens, L-363, 6 h) came out at 12 nM; in experiment [2], 1.7 nM.

As to `Cc1cc([C@](C)(O)C#Cc2cccc(-c3ccc4ncnc(N)c4c3)c2)no1` [Example 104, (R)-4-[3-(4-Aminoquinazolin-6-yl)phenyl]-2-(5-methylisoxazol-3-yl)but-3-yn-2-ol], the IC50 was found to be 280 nM in experiment [1] (Homo sapiens, L-363, 6 h) and 1.3 nM in experiment [2].

For the compound `CN1CC[C@@](O)(C#Cc2cccc(-c3ccc4[nH]nc(N)c4n3)c2)C1=O` [Example 22, (R)-3-[2-[3-(3-Amino-1H-pyrazolo[4,3-b]pyridin-5-yl)phenyl]ethynyl]-3-hydroxy-1-methyl-pyrrolidin-2-one], the IC50 was 480 nM in experiment [1] (Homo sapiens, L-363, 6 h) and 4.3 nM in experiment [2].

Take `CN1CC[C@@](O)(C#Cc2cccc(-c3ccc4ncnc(N5CCCCC5)c4n3)c2)C1=O` [Example 225, (R)-3-Hydroxy-1-methyl-3-((3-(4-(piperidin-1-yl)pyrido[3,2-d]pyrimidin-6-yl)phenyl)ethynyl)pyrrolidin-2-one]: the IC50 in experiment [1] (Homo sapiens, L-363, 6 h) came out at 600 nM; in experiment [2], 6.1 nM.

Regarding `[2H]C([2H])([2H])c1cc(-c2cccc(C#C[C@]3(O)CCN(C)C3=O)c2)nc2c(N)ncnc12` [Example 286, (R)-3-((3-(4-Amino-8-(methyl-da)pyrido[3,2-d]pyrimidin-6-yl)phenyl)ethynyl)-3-hydroxy-1-methylpyrrolidin-2-one], the 50% inhibitory concentration (IC50) worked out at 3.1 nM in experiment [1] (Homo sapiens, L-363, 6 h) and 0.9 nM in experiment [2].

On to `CN1CC[C@@](O)(C#Cc2cccc(-c3ccc4ncnc(N5CC(Cl)C5)c4n3)c2)C1=O` [Example 244, (R)-3-((3-(4-(3-Chloroazetidin-1-yl)pyrido[3,2-d]pyrimidin-6-yl)phenyl)ethynyl)-3-hydroxy-1-methylpyrrolidin-2-one], for which the half-inhibitory concentration (IC50) amounted to 240 nM in experiment [1] (Homo sapiens, L-363, 6 h) and 4.9 nM in experiment [2].

For the compound `[2H]c1nc(N)c2nc(-c3cccc(C#C[C@]4(O)CCN(C)C4=O)c3)cc(CN)c2n1` [Example 282, (R)-3-((3-(4-Amino-8-(aminomethyl)pyrido[3,2-d]pyrimidin-6-yl-2-d)phenyl)ethynyl)-3-hydroxy-1-methylpyrrolidin-2-one], the IC50 in experiment [1] (Homo sapiens, L-363, 6 h) was found to be 205 nM; in experiment [2] it was 5.6 nM.

Turning to `Cc1cnc(N)c2nc(-c3cccc(C#C[C@]4(O)CCN(C)C4=O)c3)nc(C)c12` [Example 138, (R)-3-((3-(8-Amino-4,5-dimethylpyrido[3,4-d]pyrimidin-2-yl)phenyl)ethynyl)-3-hydroxy-1-methylpyrrolidin-2-one], the half-maximal inhibitory concentration (IC50) was 9.6 nM in experiment [1] (Homo sapiens, L-363, 6 h) and at most 0.5 nM in experiment [2].

Consider `CN1CCC(O)(C#Cc2cccc(-c3ncc4ccnc(N5CCC5)c4n3)c2)C1=O` (stereo in doubt) [Example 248, (S)-3-((3-(8-(Azetidin-1-yl)pyrido[3,4-d]pyrimidin-2-yl)phenyl)ethynyl)-3-hydroxy-1-methylpyrrolidin-2-one], for which the 50% inhibitory concentration (IC50) is over 5000 nM in experiment [1] and 3340 nM in experiment [2].

Turning to `CN1CC[C@@](O)(C#Cc2cccc(-c3cc(-n4cccn4)c4ncnc(N)c4n3)c2)C1=O` [Example 303, (R)-3-[2-[3-(4-Amino-8-pyrazol-1-yl-pyrido[3,2-d]pyrimidin-6-yl)phenyl]ethynyl]-3-hydroxy-1-methyl-pyrrolidin-2-one], the IC50 was found to be 11 nM in experiment [1] (Homo sapiens, L-363, 6 h) and 0.9 nM in experiment [2].

With `CN1CC[C@@](O)(C#Cc2cccc(N3CCc4ncnc(N)c4C3)c2)C1=O` [Example 159, (R)-3-((3-(4-Amino-7,8-dihydropyrido[4,3-d]pyrimidin-6(5H)-yl)phenyl)ethynyl)-3-hydroxy-1-methylpyrrolidin-2-one], the IC50 was determined as 130 nM in experiment [1] (Homo sapiens, L-363, 6 h) and 1.3 nM in experiment [2].

As to `[2H]c1nc(N)c2nc(-c3cccc(C#C[C@]4(O)CCN(C)C4=O)c3)nc(C)c2n1` [Example 168, (R)-3-((3-(8-Amino-4-methylpyrimido[5,4-d]pyrimidin-2-yl-6-d)phenyl)ethynyl)-3-hydroxy-1-methylpyrrolidin-2-one], the IC50 amounted to 4.2 nM in experiment [1] (Homo sapiens, L-363, 6 h) and 2.2 nM in experiment [2].

In the case of `CC(C)Cc1cnc(N)c2nc(-c3cccc(C#C[C@]4(O)CCN(C)C4=O)c3)ncc12` [Example 130, (R)-3-((3-(8-Amino-5-isobutylpyrido[3,4-d]pyrimidin-2-yl)phenyl)ethynyl)-3-hydroxy-1-methylpyrrolidin-2-one], the 50% inhibitory concentration (IC50) turned out to be 58 nM in experiment [1] (Homo sapiens, L-363, 6 h) and 0.7 nM in experiment [2].

Take `CN1CC[C@@](O)(C#Cc2cccc(-c3ccc4ncnc(N5CC(F)(F)C5)c4n3)c2)C1=O` [Example 232, (R)-3-((3-(4-(3,3-Difluoroazetidin-1-yl)pyrido[3,2-d]pyrimidin-6-yl)phenyl)ethynyl)-3-hydroxy-1-methylpyrrolidin-2-one]: the IC50 was found to be 210 nM in experiment [1] (Homo sapiens, L-363, 6 h) and 5.7 nM in experiment [2].

Turning to `[2H]c1nc(N)c2nc(-c3cc(C#C[C@]4(O)CCN(C)C4=O)ccc3OC)ccc2n1` [Example 160, (R)-3-((3-(4-Aminopyrido[3,2-d]pyrimidin-6-yl-2-d)-4-methoxyphenyl)ethynyl)-3-hydroxy-1-methylpyrrolidin-2-one], the IC50 in experiment [1] (Homo sapiens, L-363, 6 h) came out at 19 nM; in experiment [2] it was 2.4 nM.

As for `CN1CC[C@@](O)(C#Cc2cccc(-c3ccc4nc(N)nc(N)c4n3)c2)C1=O` [Example 203, (R)-3-((3-(2,4-Diaminopyrido[3,2-d]pyrimidin-6-yl)phenyl)ethynyl)-3-hydroxy-1-methylpyrrolidin-2-one], the IC50 in experiment [1] (Homo sapiens, L-363, 6 h) was found to be 100 nM; in experiment [2] it was 1.2 nM.

For the compound `CN1CC[C@@](O)(C#Cc2cccc(-c3ncc4c(CN5CCCCC5)cnc(N)c4n3)c2)C1=O` [Example 145, (R)-3-[2-[3-[8-Amino-5-(1-piperidylmethyl)pyrido[3,4-d]pyrimidin-2-yl]phenyl]ethynyl]-3-hydroxy-1-methyl-pyrrolidin-2-one], the IC50 came out at 280 nM in experiment [1] (Homo sapiens, L-363, 6 h) and 3.6 nM in experiment [2].
